Data from patent publication EP4796530A1 (Biocells (Beijing) Biotech Co., Ltd., priority 2023, dated 2025).

Assays:
hERG potassium channel = target: T1, hERG potassium channel (Homo sapiens, UniProt Q12809); experiment: hERG inhibition, automated patch clamp (QPatch 48X) in HEK-293 cells stably expressing hERG; type: cell-based; conditions: HEK-293 cells stably expressing hERG potassium channel, read-out: hERG inhibition rate; for inhibition at 1 µM: pH 7.4, 1 µM; for inhibition at 10 µM: pH 7.4, 10 µM
T1 construct: host or cells: HEK-293 stably expressing hERG
Procedure: The culture temperature was 37 °C, and the carbon dioxide concentration was 5%.
Cell passage: The old medium was removed, and the cells were washed once with PBS. […] Once the cells were detached from the bottom of the dish, approximately 5 mL of complete medium pre-warmed at 37 °C was added. The cell suspension was gently triturated with a pipette to dissociate aggregated cells. The cell suspension was transferred to a sterile centrifuge tube and centrifuged at 1000 rpm for 5 min to collect the cells. For expansion or maintenance, the cells were seeded into 10 cm cell culture dishes at a density of 6×10^5 cells per cell culture dish (final volume: 5 mL).
Medium was added to terminate digestion, followed by centrifugation. The cells were then resuspended and counted. The cell density was adjusted to 2-3×10^6 cells/mL. Subsequently, the cells were gently mixed for 15-20 min on a balance shaker at room temperature, and then loaded for detection.
In this study, the automated patch clamp QPatch 48X (Sophion) system was used for electrophysiological detection.
First, the prepared cells were placed on the centrifuge of the Qpatch workstation. The cells were washed with multiple centrifugation/suspension cycles, and the cell culture medium was replaced with extracellular fluid. One MTP-96 plate was retrieved and placed at the MTP source position. The QPlate chip was retrieved and placed at the QPlate source position. The robotic arm scanned the barcodes of MTP-96 plate and QPlate chip, and transferred them to the measurement station. The intracellular fluid and extracellular fluid were aspirated from the reservoir and added to the intracellular fluid pool and the pool of cell and compound of the QPlate chip, respectively. At the measurement station, all measurement sites on the QPlate experienced initial quality control. The quality control process involved aspirating the cell suspension from the cell container of the centrifuge, positioning the cells onto the chip wells via a pressure controller, and establishing high-resistance seal to form a whole-cell recording mode. Once a stable control current baseline was obtained, the test substances can be sequentially aspirated from the test substance MTP-96 plate in order of concentration and applied to the cells.
The voltage stimulation protocol for whole-cell patch-clamp recording of hERG current was as follows: after the whole-cell seal was formed, the cell membrane voltage was clamped at -80 mV. The clamped voltage was depolarized from -80 mV to -50 mV and maintained for 0.5 s (as leak current detection), then stepped to 30 mV and maintained for 2.5 s, and then rapidly returned to -50 mV and maintained for 4 s, whereby tail current of the hERG channel can be elicited. Data was collected repeatedly every 10 s to observe the effect of the drug on hERG tail current. Experimental data was collected by the QPatch screening workstation and stored in the database server.
For each drug concentration, a two-dose regimen was set for a duration of at least 5 min. For each cell, the current detected in the compound-free extracellular fluid served as self-controls, and two cells were detected in independent replicates. All electrophysiological experiments were conducted at room temperature.
The second of the two dosages was used for data analysis. For each drug concentration, the average of the last three data points prior to the next drug concentration was taken to represent the current value for the drug concentration. The current value representing each drug concentration was normalized against the reference current value used as a blank control, and then the inhibition rate corresponding to each drug concentration was calculated.

NLRP3 = NLRP3 (Mus musculus, UniProt Q8R4B8); experiment: Inhibition curves (IC50) of canonical NLRP3 activation in J774A.1 cells, IL-1β release; type: cell-based; set-up: The mouse macrophage cell line J774A.1 was used, and LPS was used as the first signal; host or cells: J774A.1 mouse monocyte-macrophage cell line; conditions: J774A.1 cell LPS+ATP activation model
Procedure: J774A.1 cells were plated in a 48-well plate at a density of 1.0×10^6 cells/mL, with 300 µL per well. Subsequently, NLRP3 was activated by LPS+ATP or LPS+Nig. […] ATP was purchased from Sigma, Cat. No.: L2654. Nig was purchased from Shanghai Yuanye Bio-Technology Co., Ltd., Cat. No.: S45490.
Experimental groups: a negative control group, an LPS-alone incubation control group, an LPS+ATP/Nig positive control group, and an example compound experimental group with different concentrations.
After the plated J774A.1 cells adhering to the plate, the culture medium was replaced. For all the groups except the negative control group, the culture medium was completely replaced with cell culture medium containing 1 µg/mL LPS. The negative control group received cell culture medium. Then, all the groups were incubated overnight. 18 h later, the culture medium was replaced again. The culture medium of the example compound experimental group was completely replaced with culture medium containing different concentrations of compounds; while the negative control group, the LPS-alone incubation control group, and the LPS+ATP/Nig positive control group received cell culture medium. 1 h later, the culture mediums of the LPS+ATP/Nig positive control group and the example compound experimental group with different concentrations were completely replaced with cell culture medium containing 5 mM ATP or 10 µM Nig. 1 h later, the cell supernatants were collected for IL-1β detection.
Therefore, the relative change in the amount of IL-1β release may directly reflect NLRP3 inhibitory effect. The inhibitory effect of the compounds varies with different concentrations, and based on this, an inhibition curve can be constructed, and the inhibitory effects of the compounds were assessed by IC50.

Chain of NLRP3 (Q8R4B8 whole entry): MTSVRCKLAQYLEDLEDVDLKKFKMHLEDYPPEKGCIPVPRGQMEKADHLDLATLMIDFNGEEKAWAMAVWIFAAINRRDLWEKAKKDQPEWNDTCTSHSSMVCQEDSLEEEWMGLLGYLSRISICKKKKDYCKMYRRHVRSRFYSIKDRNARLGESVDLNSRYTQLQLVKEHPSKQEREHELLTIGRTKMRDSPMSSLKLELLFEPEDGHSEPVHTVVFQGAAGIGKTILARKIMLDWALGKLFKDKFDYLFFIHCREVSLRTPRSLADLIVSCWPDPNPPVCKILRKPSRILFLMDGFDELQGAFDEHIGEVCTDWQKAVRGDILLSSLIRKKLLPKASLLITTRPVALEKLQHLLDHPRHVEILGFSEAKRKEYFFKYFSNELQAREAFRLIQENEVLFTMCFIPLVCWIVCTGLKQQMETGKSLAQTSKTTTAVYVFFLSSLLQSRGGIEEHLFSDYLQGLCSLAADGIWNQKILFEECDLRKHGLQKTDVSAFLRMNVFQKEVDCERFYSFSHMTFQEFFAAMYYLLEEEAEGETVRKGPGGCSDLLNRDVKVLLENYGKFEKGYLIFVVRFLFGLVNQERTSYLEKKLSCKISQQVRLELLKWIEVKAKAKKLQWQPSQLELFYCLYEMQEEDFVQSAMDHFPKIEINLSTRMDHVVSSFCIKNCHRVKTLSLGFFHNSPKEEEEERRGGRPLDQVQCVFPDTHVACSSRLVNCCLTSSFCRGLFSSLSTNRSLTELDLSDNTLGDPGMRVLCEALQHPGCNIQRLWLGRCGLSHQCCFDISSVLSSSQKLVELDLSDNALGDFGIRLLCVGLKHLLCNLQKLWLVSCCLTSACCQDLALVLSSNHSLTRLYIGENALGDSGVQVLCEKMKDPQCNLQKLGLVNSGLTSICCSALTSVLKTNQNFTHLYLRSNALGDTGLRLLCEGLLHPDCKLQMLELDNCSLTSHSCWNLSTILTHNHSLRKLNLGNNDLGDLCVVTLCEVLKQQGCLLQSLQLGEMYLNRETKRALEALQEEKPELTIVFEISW
T1 sequence (Q12809 whole entry): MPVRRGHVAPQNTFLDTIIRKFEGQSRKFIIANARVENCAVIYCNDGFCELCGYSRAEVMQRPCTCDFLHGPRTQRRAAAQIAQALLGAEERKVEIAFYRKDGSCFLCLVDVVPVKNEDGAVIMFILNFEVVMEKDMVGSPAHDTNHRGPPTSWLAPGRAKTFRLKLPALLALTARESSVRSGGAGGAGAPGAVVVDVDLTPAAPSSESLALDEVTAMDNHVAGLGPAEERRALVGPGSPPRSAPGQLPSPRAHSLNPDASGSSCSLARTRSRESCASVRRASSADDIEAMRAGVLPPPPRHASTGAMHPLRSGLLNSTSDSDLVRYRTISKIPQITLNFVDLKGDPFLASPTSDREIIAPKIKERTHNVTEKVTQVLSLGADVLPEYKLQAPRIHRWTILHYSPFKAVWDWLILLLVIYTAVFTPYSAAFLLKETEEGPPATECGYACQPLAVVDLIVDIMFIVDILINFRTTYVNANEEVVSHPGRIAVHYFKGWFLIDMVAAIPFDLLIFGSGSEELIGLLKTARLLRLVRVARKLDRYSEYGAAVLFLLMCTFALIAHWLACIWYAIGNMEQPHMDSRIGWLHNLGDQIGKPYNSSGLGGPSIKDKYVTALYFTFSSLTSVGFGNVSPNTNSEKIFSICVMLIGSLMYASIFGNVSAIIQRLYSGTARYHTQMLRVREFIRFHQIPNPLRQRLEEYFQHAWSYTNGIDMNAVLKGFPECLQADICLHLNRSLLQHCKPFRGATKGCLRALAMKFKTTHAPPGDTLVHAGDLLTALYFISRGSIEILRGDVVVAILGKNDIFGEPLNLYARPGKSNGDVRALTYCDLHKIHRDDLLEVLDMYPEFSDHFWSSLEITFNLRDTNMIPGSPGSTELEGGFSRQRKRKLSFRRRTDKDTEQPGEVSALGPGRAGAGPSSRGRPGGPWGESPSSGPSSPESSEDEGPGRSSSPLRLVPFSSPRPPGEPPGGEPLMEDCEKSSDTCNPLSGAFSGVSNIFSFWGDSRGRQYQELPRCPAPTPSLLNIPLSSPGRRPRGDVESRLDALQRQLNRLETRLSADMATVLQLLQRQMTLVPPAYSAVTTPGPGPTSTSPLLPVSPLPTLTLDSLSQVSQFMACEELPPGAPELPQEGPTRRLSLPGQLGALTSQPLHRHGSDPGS

SMILES	inhibition at 1 µM (hERG potassium channel) [%]	inhibition at 10 µM (hERG potassium channel) [%]	IC50 (NLRP3) [nM]
COc1ccc(S(=O)(=O)NC(=O)Nc2c3c(cc4c2CCC4)CCC3)cc1CN(C)C [Example 3, 3-((dimethylamino)methyl)-N-((1,2,3,5,6,7-hexahydro-s-indacen-4-yl)carbamoyl)-4-methoxybenzenesulfonamide]	0.45	1.56	203
CN(C)Cc1cc(S(=O)(=O)NC(=O)Nc2c3c(cc4c2CCC4)CCC3)ccc1O [Example 5, 3-((dimethylamino)methyl)-N-((1,2,3,5,6,7-hexahydro-s-indacen-4-yl)carbamoyl)-4-hydroxybenzenesulfonamide]	0.28	-0.61	224
CN(C)Cc1cccc(S(=O)(=O)NC(=O)Nc2c3c(cc4c2CCC4)CCC3)c1N [Example 19, 2-amino-3-((dimethylamino)methyl)-N-((1,2,3,5,6,7-hexahydro-s-indacen-4-yl)carbamoyl)benzenesulfonamide]	0.3	2.96	114
